In ChEMBL document CHEMBL1130263 (J Med Chem, 1997):
pIC50: −log10 of the molar value.

Columns and labels:
[1] = molecular target: 5-hydroxytryptamine receptor 2A (Rattus norvegicus, UniProt P14842); assay: Inhibition of [3H]ketanserin binding to 5-hydroxytryptamine 2A receptor from rat brain
[2] = molecular target: T1, Adrenergic receptor alpha-1 (Rattus norvegicus, UniProt P15823+P23944+P43140); assay: Inhibition of [3H]prazosin binding to Alpha-1 adrenergic receptor in rat brain membranes
T1 sequence (P15823 whole entry): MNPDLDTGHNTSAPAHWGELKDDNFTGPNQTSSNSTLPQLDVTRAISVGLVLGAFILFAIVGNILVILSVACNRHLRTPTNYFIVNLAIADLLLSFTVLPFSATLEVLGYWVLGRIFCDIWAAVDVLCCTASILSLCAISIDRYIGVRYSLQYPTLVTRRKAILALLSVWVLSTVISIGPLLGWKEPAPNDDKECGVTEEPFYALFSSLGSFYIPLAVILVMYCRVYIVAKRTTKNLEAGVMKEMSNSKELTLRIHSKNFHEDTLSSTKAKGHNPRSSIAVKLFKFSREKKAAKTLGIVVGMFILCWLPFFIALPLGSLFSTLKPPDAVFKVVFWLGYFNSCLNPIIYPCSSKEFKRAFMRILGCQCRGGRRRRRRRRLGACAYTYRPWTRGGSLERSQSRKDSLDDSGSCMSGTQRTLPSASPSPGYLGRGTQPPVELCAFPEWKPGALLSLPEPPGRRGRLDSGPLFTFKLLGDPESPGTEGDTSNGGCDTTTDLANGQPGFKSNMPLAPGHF
T1 sequence (P23944 whole entry): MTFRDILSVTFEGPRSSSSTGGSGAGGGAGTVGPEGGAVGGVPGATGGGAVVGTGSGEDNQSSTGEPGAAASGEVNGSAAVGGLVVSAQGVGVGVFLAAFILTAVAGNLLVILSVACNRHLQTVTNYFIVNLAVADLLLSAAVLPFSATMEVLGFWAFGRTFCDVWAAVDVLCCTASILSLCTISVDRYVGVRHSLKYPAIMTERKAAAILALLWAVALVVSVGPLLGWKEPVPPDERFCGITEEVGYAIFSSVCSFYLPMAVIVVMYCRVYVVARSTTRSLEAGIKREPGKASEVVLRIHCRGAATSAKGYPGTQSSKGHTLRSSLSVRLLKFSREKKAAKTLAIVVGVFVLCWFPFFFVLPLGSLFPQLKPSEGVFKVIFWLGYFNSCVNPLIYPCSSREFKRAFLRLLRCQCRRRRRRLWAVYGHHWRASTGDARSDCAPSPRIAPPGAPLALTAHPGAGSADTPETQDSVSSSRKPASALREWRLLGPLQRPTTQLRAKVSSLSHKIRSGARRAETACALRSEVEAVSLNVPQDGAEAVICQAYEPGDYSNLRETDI
T1 sequence (P43140 whole entry): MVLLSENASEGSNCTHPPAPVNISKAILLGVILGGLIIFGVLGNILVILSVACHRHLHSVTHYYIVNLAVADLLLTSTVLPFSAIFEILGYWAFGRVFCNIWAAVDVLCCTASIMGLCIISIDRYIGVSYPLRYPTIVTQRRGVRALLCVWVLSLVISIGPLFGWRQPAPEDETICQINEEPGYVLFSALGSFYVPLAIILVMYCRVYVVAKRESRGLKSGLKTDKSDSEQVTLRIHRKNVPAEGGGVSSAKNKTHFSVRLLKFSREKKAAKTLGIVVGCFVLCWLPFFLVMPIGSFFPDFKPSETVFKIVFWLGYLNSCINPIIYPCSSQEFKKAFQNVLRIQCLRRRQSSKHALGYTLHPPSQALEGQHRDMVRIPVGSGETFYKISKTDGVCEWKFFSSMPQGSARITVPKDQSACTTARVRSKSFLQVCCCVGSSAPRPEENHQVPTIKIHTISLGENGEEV

[3] = molecular target: T2, Muscarinic acetylcholine receptor M1 (Homo sapiens, UniProt P11229); assay: Inhibitory binding of [3H]pirenzepine to human Muscarinic acetylcholine receptor M1 in membranes from CHO-K1 cells; type: cell-based
T2 sequence (P11229 whole entry): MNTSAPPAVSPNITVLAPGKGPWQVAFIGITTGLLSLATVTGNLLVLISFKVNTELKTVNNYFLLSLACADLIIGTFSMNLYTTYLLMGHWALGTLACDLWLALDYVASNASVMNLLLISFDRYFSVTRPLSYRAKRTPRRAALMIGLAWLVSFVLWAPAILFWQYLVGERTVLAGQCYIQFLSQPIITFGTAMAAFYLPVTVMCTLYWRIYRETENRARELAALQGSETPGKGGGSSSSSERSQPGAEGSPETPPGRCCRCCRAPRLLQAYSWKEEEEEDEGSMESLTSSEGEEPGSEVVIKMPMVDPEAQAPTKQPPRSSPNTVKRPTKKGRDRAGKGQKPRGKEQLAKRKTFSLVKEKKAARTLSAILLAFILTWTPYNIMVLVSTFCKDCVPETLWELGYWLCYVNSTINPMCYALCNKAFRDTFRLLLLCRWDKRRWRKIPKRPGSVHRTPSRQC

[4] = molecular target: T3, 5-hydroxytryptamine receptor 2C (Rattus norvegicus, UniProt P08909)
T3 sequence (P08909 whole entry): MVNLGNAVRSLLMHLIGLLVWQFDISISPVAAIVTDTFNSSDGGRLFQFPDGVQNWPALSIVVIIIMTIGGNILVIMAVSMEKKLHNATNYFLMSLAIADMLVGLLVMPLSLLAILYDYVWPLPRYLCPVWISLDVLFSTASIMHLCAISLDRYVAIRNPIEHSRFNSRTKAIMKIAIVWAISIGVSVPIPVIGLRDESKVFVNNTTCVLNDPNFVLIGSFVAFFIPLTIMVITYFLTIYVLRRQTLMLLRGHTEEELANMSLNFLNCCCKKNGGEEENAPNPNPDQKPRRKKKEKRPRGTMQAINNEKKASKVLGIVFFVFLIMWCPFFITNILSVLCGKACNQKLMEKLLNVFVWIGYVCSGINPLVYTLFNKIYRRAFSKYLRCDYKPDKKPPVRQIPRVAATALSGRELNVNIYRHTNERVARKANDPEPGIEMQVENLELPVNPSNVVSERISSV
Description: Inhibition of [3H]mesulergine binding to 5-hydroxytryptamine 2C receptor in rat brain membranes

D(1A) dopamine receptor = D(1A) dopamine receptor (Rattus norvegicus, UniProt P18901)
D(1A) dopamine receptor, sequence (P18901 whole entry): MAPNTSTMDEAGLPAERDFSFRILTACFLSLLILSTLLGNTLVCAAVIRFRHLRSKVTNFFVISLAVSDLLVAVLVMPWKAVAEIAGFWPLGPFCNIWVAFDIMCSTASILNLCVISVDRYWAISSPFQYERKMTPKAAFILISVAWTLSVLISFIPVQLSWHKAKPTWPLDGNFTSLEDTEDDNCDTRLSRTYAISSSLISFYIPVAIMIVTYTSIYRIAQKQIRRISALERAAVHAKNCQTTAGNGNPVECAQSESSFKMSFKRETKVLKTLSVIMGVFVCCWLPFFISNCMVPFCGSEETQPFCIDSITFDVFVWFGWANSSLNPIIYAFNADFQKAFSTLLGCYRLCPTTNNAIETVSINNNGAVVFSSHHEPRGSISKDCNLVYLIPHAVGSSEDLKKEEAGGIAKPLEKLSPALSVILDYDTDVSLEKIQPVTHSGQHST
Description: Inhibitory binding of [3H]SCH-23390 to Dopamine receptor D1 in membranes from rat corpus striatum

Histamine H1 receptor = Histamine H1 receptor (Rattus norvegicus, UniProt P31390); assay: Inhibitory binding of [3H]mepyramine to histamine H1 receptors in rat brain membranes; type: cell membranes
Histamine H1 receptor, sequence (P31390 whole entry): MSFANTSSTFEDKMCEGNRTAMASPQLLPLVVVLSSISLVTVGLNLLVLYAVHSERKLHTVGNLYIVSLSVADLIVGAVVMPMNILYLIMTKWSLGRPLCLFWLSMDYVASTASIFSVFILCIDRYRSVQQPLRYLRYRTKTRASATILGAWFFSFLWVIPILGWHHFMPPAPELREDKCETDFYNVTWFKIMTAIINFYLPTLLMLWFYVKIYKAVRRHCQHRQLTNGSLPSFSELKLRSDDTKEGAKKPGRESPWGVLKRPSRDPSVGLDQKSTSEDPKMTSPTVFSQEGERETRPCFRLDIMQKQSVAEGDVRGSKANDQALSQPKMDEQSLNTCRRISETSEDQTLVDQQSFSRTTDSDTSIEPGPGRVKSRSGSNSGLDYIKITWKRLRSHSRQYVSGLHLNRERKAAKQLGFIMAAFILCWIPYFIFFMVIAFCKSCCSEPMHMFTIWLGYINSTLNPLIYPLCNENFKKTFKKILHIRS

Rattus norvegicus [5] = assay: Locomotor activity in male Wistar rats after a dose of 10 uM/kg, 30 min before 1 mg/kg of apomorphine administration; type: functional
Rattus norvegicus [6] = assay: Locomotor activity in male Wistar rats after a dose of 100 uM/kg, 30 min before 1 mg/kg of apomorphine administration; type: functional
Rattus norvegicus [7] = assay: Locomotor activity in male Wistar rats after a dose of 3 uM/kg, 30 min before 1 mg/kg of apomorphine administration; type: functional
Rattus norvegicus [8] = assay: Locomotor activity in male Wistar rats after a dose of 30 uM/kg, 30 min before 1 mg/kg of apomorphine administration; type: functional
Rattus norvegicus [9] = assay: Catalytic action on male Wistar rats after subcutaneous administration of 10 µmol/kg dose of compound
Rattus norvegicus [10] = assay: Catalytic action on male Wistar rats after subcutaneous administration of 100 µmol/kg dose of compound
Rattus norvegicus [11] = assay: Locomotor activity in male Wistar rats after a dose of 0.003 uM/kg, 30 min before 1 mg/kg of apomorphine administration; type: functional
Rattus norvegicus [12] = assay: Locomotor activity in male Wistar rats after a dose of 0.03 uM/kg, 30 min before 1 mg/kg of apomorphine administration; type: functional
Rattus norvegicus [13] = assay: Locomotor activity in male Wistar rats after a dose of 0.3 uM/kg, 30 min before 1 mg/kg of apomorphine administration; type: functional
Rattus norvegicus [14] = assay: Catalytic action on male Wistar rats after subcutaneous administration of 0.3 µmol/kg dose of compound
Rattus norvegicus [15] = assay: Catalytic action on male Wistar rats after subcutaneous administration of 0.03 µmol/kg dose of compound
Rattus norvegicus [16] = assay: Catalytic action on male Wistar rats after subcutaneous administration of 0.003 µmol/kg dose of compound
Rattus norvegicus [17] = assay: Locomotor activity in male Wistar rats after a dose of 1.0 uM/kg, 30 min before 1 mg/kg of apomorphine administration; type: functional
Rattus norvegicus [18] = assay: Locomotor activity in male Wistar rats after a dose of 3.0 uM/kg, 30 min before 1 mg/kg of apomorphine administration; type: functional
Rattus norvegicus [19] = assay: Catalytic action on male Wistar rats after subcutaneous administration of 30 µmol/kg dose of compound
Rattus norvegicus [20] = assay: Catalytic action on male Wistar rats after subcutaneous administration of 1.0 µmol/kg dose of compound
Rattus norvegicus [21] = assay: Catalytic action on male Wistar rats after subcutaneous administration of 3.0 µmol/kg dose of compound

5-hydroxytryptamine receptor 2A, sequence (P14842 whole entry): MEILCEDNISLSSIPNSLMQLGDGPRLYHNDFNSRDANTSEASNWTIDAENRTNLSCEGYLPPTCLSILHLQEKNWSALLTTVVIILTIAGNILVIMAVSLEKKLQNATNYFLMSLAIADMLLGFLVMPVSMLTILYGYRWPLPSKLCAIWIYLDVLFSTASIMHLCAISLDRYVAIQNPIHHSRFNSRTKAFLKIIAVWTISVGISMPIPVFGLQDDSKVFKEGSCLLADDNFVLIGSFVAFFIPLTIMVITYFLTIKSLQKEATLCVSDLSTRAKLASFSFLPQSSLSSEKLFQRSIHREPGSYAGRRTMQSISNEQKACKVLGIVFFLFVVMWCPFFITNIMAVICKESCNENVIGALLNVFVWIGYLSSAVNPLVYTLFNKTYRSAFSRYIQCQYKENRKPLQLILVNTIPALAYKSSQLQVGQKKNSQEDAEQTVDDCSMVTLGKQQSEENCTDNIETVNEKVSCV

| Compound | pIC50 [1] | IC50 [2] [nM] | pIC50 [3] | pIC50 [4] | pIC50 (D(1A) dopamine receptor) | Locomotor activity (Rattus norvegicus [5]) | Catalyptic action (Rattus norvegicus [9]) | also measured |
| --- | --- | --- | --- | --- | --- | --- | --- | --- |
| CN1CCN(C2=Nc3cc(OS(=O)(=O)C(F)(F)F)ccc3Nc3ccccc32)CC1 | 6.26 | > 1000 | 7.46 | 6.21 | 6.03 | – | – | pIC50 (Histamine H1 receptor): 6.14 |
| CN1CCN(C2=Nc3cc(O)ccc3Nc3ccccc32)CC1 | – | 1200 | 7.57 | 6.36 | 5.01 | – | – | – |
| CN1CCN(C2=Nc3ccccc3Nc3ccc(OS(=O)(=O)C(F)(F)F)cc32)CC1 | 8.10 | 12 | 5.92 | 7.47 | 7.19 | 102 | 0 | pIC50 (Histamine H1 receptor): 7.33; Locomotor activity (Rattus norvegicus [6]): 8; Locomotor activity (Rattus norvegicus [7]): 87; Locomotor activity (Rattus norvegicus [8]): 22; Catalyptic action (Rattus norvegicus [10]): 0 |
| CN1CCN(C2=Nc3cc(Cl)ccc3Nc3ccccc32)CC1 [CLOZAPINE] | – | – | – | – | – | 98 | 0 | Locomotor activity (Rattus norvegicus [6]): 7; Catalyptic action (Rattus norvegicus [10]): 0 |
| O=C(CCCN1CCC(O)(c2ccc(Cl)cc2)CC1)c1ccc(F)cc1 [HALOPERIDOL] | – | – | – | – | – | – | – | Locomotor activity (Rattus norvegicus [11]): 88; Locomotor activity (Rattus norvegicus [12]): 9; Locomotor activity (Rattus norvegicus [13]): 1; Catalyptic action (Rattus norvegicus [14]): 100; Catalyptic action (Rattus norvegicus [15]): 75; Catalyptic action (Rattus norvegicus [16]): 0 |

The next lines start with results.

| pIC50 [1] | IC50 [2] [nM] | pIC50 [3] | pIC50 [4] | pIC50 (D(1A) dopamine receptor) | Compound | Locomotor activity (Rattus norvegicus [5]) | Catalyptic action (Rattus norvegicus [9]) | also measured |
| --- | --- | --- | --- | --- | --- | --- | --- | --- |
| 7.46 | 260 | 7.43 | 7.09 | 6.26 | CN1CCN(C2=Nc3ccccc3Nc3ccc(O)cc32)CC1 | – | – | – |
| 7.92 | 120 | 7.41 | 7.68 | 6.26 | COc1ccc2c(c1)C(N1CCN(C)CC1)=Nc1ccccc1N2 | – | – | – |
| – | 240 | 7.72 | 7.07 | 5.13 | COc1ccc2c(c1)N=C(N1CCN(C)CC1)c1ccccc1N2 | – | – | – |
| – | 64 | 8.22 | – | 7.96 | CN1CCN(C2=Nc3ccccc3Nc3ccc(Cl)cc32)CC1 [ISOCLOZAPINE] | 3 | 25 | Locomotor activity (Rattus norvegicus [17]): 82; Locomotor activity (Rattus norvegicus [13]): 114; Locomotor activity (Rattus norvegicus [18]): 65; Locomotor activity (Rattus norvegicus [8]): 3; Catalyptic action (Rattus norvegicus [19]): 75; Catalyptic action (Rattus norvegicus [14]): 0; Catalyptic action (Rattus norvegicus [20]): 0; Catalyptic action (Rattus norvegicus [21]): 0 |
